Results reported in publication PMC12380092, “Chemoenzymatic total synthesis of the antibiotic (−)-13-deoxytetrodecamycin using the Diels–Alderase TedJ” (Chemical Science, 2025).

Target: T1, TedJ (Streptomyces sp. WAC04657, UniProt Z9VZN5SQU4)
T1 construct: N-terminal hexa-histidine tag, recombinant in E. coli, purified; homodimer
T1 sequence (Z9VZN5SQU4 20-510): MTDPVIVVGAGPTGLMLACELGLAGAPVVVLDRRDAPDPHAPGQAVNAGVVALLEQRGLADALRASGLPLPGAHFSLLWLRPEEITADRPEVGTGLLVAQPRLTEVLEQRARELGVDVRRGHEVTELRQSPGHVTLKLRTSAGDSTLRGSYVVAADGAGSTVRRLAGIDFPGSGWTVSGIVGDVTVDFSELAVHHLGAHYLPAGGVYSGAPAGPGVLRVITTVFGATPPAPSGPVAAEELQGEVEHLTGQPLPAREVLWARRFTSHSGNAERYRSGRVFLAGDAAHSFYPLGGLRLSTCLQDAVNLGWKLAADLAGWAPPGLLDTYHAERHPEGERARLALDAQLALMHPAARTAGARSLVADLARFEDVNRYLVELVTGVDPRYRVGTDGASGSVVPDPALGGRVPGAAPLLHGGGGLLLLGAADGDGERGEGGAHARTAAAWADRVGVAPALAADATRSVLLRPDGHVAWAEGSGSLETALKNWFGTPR
Assay: X-ray crystal structure ([…] Å); MS of denatured protein; absorbance spectrum
Format: binding
Settings: non-covalently bound, co-purified; proposed structural role

With `Cc1cc2nc3c(=O)[nH]c(=O)nc-3n(C[C@H](O)[C@H](O)[C@H](O)COP(=O)(O)OP(=O)(O)OC[C@H]3O[C@@H](n4cnc5c(N)ncnc54)[C@H](O)[C@@H]3O)c2cc1C` [FAD] the “X-ray crystal structure (1.6 Å); MS of denatured protein; absorbance spectrum” value was “showing the enzyme active site and non-covalently bound FAD molecule”.
